Measurements reported in patent US9624197B2, “2-pyridylamino-4-nitrile-piperidinyl orexin receptor antagonists” (MERCK SHARP & DOHME CORP., priority 2012, dated 2017).

Columns and labels:
human orexin-2 receptor = human orexin-2 receptor (Homo sapiens (Human), UniProt O43614); test: FLIPR Ca2+ Flux Assay, CHO cells expressing human orexin-2 receptor; type: cell-based; conditions: agonist 70 pM Ala-6,12 human orexin-A, read-out: hOX2R FLIPR IC50
Experimental: (§1) The utility of the compounds in accordance with the present invention as orexin receptor OX1R and/or OX2R antagonists may be readily determined without undue experimentation by methodology well known in the art, including the “FLIPR Ca^2+ Flux Assay” (Okumura et al., Biochem. Biophys. Res. Comm. 280:976-981, 2001). In a typical experiment the OX1 and OX2 receptor antagonistic activity of the compounds of the present invention was determined in accordance with the following experimental method. For intracellular calcium measurements, Chinese hamster ovary (CHO) cells expressing the rat orexin-1 receptor or the human orexin-2 receptor, are grown in Iscove's modified DMEM containing 2 mM L-glutamine, […], 1% hypoxanthine-thymidine supplement, 100 U/ml penicillin, 100 μg/ml streptomycin and 10% heat-inactivated fetal calf serum (FCS). The cells are seeded at 20,000 cells/well into Becton-Dickinson black 384-well clear bottom sterile plates coated with poly-D-lysine. All reagents were from GIBCO-Invitrogen Corp. The seeded plates are incubated overnight at […]. and 5% CO2. Ala-6,12 human orexin-A as the agonist is prepared as a 1 mM stock solution in 1% bovine serum albumin (BSA) and diluted in assay buffer (HBSS containing 20 mM HEPES, 0.1% BSA and 2.5 mM probenecid, pH7.4) for use in the assay at a final concentration of 70 pM. Test compounds are prepared as 10 mM stock solution in DMSO, then diluted in 384-well plates, first in DMSO, then assay buffer. On the day of the assay, cells are washed 3 times with 100 μl assay buffer and then incubated for 60 min (37° C., 5% CO2) in 60 μl assay buffer containing 1 μM Fluo-4AM ester, 0.02% pluronic acid, and 1% BSA. The dye loading solution is then aspirated and cells are washed 3 times with 100 μl assay buffer. 30 μl of that same buffer is left in each well. Within the Fluorescent Imaging Plate Reader (FLIPR, Molecular Devices), test compounds are added to the plate in a volume of 25 μl, incubated for 5 min and finally 25 μl of agonist is added. Fluorescence is measured for each well at 1 second intervals for 5 minutes and the height of each fluorescence peak is compared to the height of the fluorescence peak induced by 70 pM Ala-6,12 orexin-A with buffer in place of antagonist. For each antagonist, IC50 value (the concentration of compound needed to inhibit 50% of the agonist response) is determined. Alternatively, compound potency can be assessed by a radioligand binding assay (described in Bergman et. al. Bioorg. Med. Chem. Lett. 2008, 18, 1425-1430) in which the inhibition constant (Ki) is determined in membranes prepared from CHO cells expressing either the OX1 or OX2 receptor. The intrinsic orexin receptor antagonist activity of a compound which may be used in the present invention may be determined by these assays.

rat orexin-1 receptor = rat orexin-1 receptor (Rattus norvegicus, UniProt P56718); test: FLIPR Ca2+ Flux Assay, CHO cells expressing rat orexin-1 receptor; type: cell-based; conditions: agonist 70 pM Ala-6,12 human orexin-A, text says rat orexin-1 receptor, read-out: hOX1R FLIPR IC50
Experimental: as §1

human orexin-2 receptor, sequence (O43614 whole entry): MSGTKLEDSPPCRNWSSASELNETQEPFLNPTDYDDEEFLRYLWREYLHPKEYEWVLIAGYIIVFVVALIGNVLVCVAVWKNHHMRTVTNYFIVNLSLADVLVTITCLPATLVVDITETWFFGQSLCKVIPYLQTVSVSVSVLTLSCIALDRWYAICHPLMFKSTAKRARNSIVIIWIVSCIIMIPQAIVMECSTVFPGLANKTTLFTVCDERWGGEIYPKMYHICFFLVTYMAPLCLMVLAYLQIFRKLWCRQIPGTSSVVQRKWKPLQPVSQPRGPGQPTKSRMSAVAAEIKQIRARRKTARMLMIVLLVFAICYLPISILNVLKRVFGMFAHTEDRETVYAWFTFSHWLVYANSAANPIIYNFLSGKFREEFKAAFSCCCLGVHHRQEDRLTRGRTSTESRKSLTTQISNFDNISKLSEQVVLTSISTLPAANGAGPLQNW

SMILES | IC50 (human orexin-2 receptor) [nM] | IC50 (rat orexin-1 receptor) [nM]
C[C@@H]1CC[C@@H](N(C)c2cc(C#N)ccn2)CN1C(=O)c1ccccc1-n1nccn1 [Example 8, 2-(((3R,6R)-1-(2-(2H-1,2,3-Triazol-2-yl)benzoyl)-6-methylpiperidin-3-yl)(methyl)amino)isonicotinonitrile] | 20 | 2050
COc1c(C#N)ccnc1N[C@@H]1CC[C@@H](C)N(C(=O)c2ccccc2-n2nccn2)C1 [Example 2, 3-methoxy-2-{[(3R,6R)-6-methyl-1-{[2-(2H-1,2,3-triazol-2-yl)phenyl]carbonyl}piperidin-3-yl]amino}pyridine-4-carbonitrile] | 11 | 267
CC(=O)N(c1cc(C#N)ccn1)[C@@H]1CC[C@@H](C)N(C(=O)c2ccccc2-n2nccn2)C1 [Example 15, N-((3R,6R)-1-(2-(2H-1,2,3-Triazol-2-yl)benzoyl)-6-methylpiperidin-3-yl)-N-(4-cyanopyridin-2-yl)acetamide] | – | > 10000
CCCN(c1cc(C#N)ccn1)[C@@H]1CC[C@@H](C)N(C(=O)c2ccccc2-n2nccn2)C1 [Example 14, 2-{[(3R,6R)-6-methyl-1-{[2-(2H-1,2,3-triazol-2-yl)phenyl]carbonyl}piperidin-3-yl](propyl)-amino}pyridine-4-carbonitrile] | 13 | 330
C[C@@H]1CC[C@@H](Nc2cc(C#N)ccn2)CN1C(=O)c1ccccc1-n1nccn1 [Example 1, 2-(((3R,6R)-1-(2-(2H-1,2,3-Triazol-2-yl)benzoyl)-6-methylpiperidin-3-yl)amino)isonicotinonitrile] | 29 | 1740
CCN(c1cc(C#N)ccn1)[C@@H]1CC[C@@H](C)N(C(=O)c2ccccc2-n2nccn2)C1 [Example 12, 2-{ethyl[(3R,6R)-6-methyl-1-{[2-(2H-1,2,3-triazol-2-yl)phenyl]carbonyl}piperidin-3-yl]amino}-pyridine-4-carbonitrile] | 23 | 1990
C[C@@H]1CC[C@@H](N(C)c2cc(C#N)ccn2)CN1C(=O)c1ccccc1-n1ncnn1 [Example 9, 2-{methyl[(3R,6R)-6-methyl-1-{[2-(2H-tetrazol-2-yl)phenyl]-carbonyl}piperidin-3-yl]amino}pyridine-4-carbonitrile] | 32 | 2240
COc1c(C#N)ccnc1N(C)[C@@H]1CC[C@@H](C)N(C(=O)c2ccsc2-c2ncccn2)C1 [Example 11, 3-methoxy-2-(methyl{(3R,6R)-6-methyl-1-[(2-pyrimidin-2-ylthiophen-3-yl)carbonyl]piperidin-3-yl}amino)pyridine-4-carbonitrile] | 34 | > 10000
C[C@@H]1CC[C@@H](Nc2cc(C#N)ccn2)CN1C(=O)c1ccccc1-n1ncnn1 [Example 3, 2-(((3R,6R)-1-(2-(2H-Tetrazol-2-yl)benzoyl)-6-methylpiperidin-3-yl)amino)isonicotinonitrile] | 9 | 1920
COc1c(C#N)ccnc1N(C)[C@@H]1CC[C@@H](C)N(C(=O)c2ccsc2-n2nccn2)C1 [Example 10, 3-methoxy-2-{methyl[(3R,6R)-6-methyl-1-{[2-(2H-1,2,3-triazol-2-yl)thiophen-3-yl]carbonyl}piperidin-3-yl]amino}pyridine-4-carbonitrile] | 39 | > 10000
Cc1c(C#N)ccnc1N[C@@H]1CC[C@@H](C)N(C(=O)c2ccccc2-n2nccn2)C1 [Example 4, 2-(((3R,6R)-1-(2-(2H-1,2,3-Triazol-2-yl)benzoyl)-6-methylpiperidin-3-yl)amino)-3-methylisonicotinonitrile] | 7 | 745
C=CCN(c1cc(C#N)ccn1)[C@@H]1CC[C@@H](C)N(C(=O)c2ccccc2-n2nccn2)C1 [Example 13, 2-{[(3R,6R)-6-methyl-1-{[2-(2H-1,2,3-triazol-2-yl)phenyl]carbonyl}piperidin-3-yl](prop-2-en-1-yl)amino}pyridine-4-carbonitrile] | 23 | 2550
COc1c(C#N)ccnc1N[C@@H]1CC[C@@H](C)N(C(=O)c2ccsc2-c2ncccn2)C1 [Example 7, 3-methoxy-2-((3R,6R)-6-methyl-1-(2-(pyrimidin-2-yl)thiophene-3-carbonyl)piperidin-3-ylamino)isonicotinonitrile] | 47 | 384
Cc1c(C#N)ccnc1N[C@@H]1CC[C@@H](C)N(C(=O)c2ccccc2-n2ncnn2)C1 [Example 5, 3-methyl-2-{[(3R,6R)-6-methyl-1-{[2-(2H-tetrazol-2-yl)phenyl]-carbonyl}-piperidin-3-yl]amino}pyridine-4-carbonitrile] | 7 | 1150
COc1c(C#N)ccnc1N[C@@H]1CC[C@@H](C)N(C(=O)c2ccsc2-n2nccn2)C1 [Example 6, 2-((3R,6R)-1-(2-(2H-1,2,3-Triazol-2-yl)thiophene-3-carbonyl)-6-methylpiperidin-3-ylamino)-3-methoxyisonicotinonitrile] | 11 | 827
